The nature of this series: Human HepG2 cell viability assay in 384 well format. The series is classed as toxicity, cell-based. Details: dose 125 nL, time 70.5 hour; concentration not given beside the values. As to conditions: HepG2 cells, read-out: Inhibition.

For `Cc1nc(C)c(C(=O)N2CCC(O)(Cn3ccc4ccncc43)CC2)s1`, the cytotoxicity at 70.5 h was found to be 1.41%. As for `O=C(C1CCOCC1)N1CCC(O)(Cn2ccc3ccncc32)CC1`, the figure is -6.06%; as for `CC(C)S(=O)(=O)N1CCC(c2cc3n(n2)[C@@H](C(F)(F)F)C[C@@H](C)N3)CC1`, -7.62%; as for `Cc1ccc(S(=O)(=O)N2C[C@H]3C[C@H](NC(=O)c4cc(C)no4)[C@H]3C2)cc1`, -3.09%. As for `Nc1cc(-c2cccs2)nn(CC(=O)NCC2CCCCC2)c1=O`, the figure is -10%; as for `CCN(Cc1ccccc1)C(=O)c1cc(C2CCCN2C)ccn1` (centres undefined), 10.8%; as for `COCC(=O)N1CCC(c2cc(C(F)(F)F)c3c(C)noc3n2)CC1`, 12.4%. As for `Cc1cc(-c2cc(N)c(=O)n(CC(=O)NCC3CCCCC3)n2)c(C)o1`, the figure is 12.5%. As to `Cc1ccc(S(=O)(=O)N2C[C@H]3C[C@H](NC(=O)C(C)C)[C@H]3C2)cc1`, the cytotoxicity at 70.5 h was 20.3%.

Regarding `Cc1ccc2c(c1)C(=O)NCC1(CCN(C(=O)c3ccccn3)CC1)O2`, the cytotoxicity at 70.5 h is -7.17%. With `Cc1ccc2c(c1)C(=O)NCC1(CCN(C(=O)c3cc(C)no3)CC1)O2`, the cytotoxicity at 70.5 h was -7.27%.

For the compound `Cc1ccc2c(c1)C(=O)NCC1(CCN(C(=O)c3ccnn3C)CC1)O2`, the cytotoxicity at 70.5 h was -4.65%. Next, `Cc1cccc(C(=O)N2C[C@@H]3CC[C@H](Oc4cccc(F)c4)[C@@H]3C2)n1`: -5.82%; `NCc1cnn(-c2ccccc2C(=O)NCCc2ccccn2)c1`: -6.02%. Next, `COCCNC(=O)c1ccccc1-n1cc(CN)cn1`: -1.19%. In the case of `Cc1ccc(CC(=O)N(C)CC2(O)CCCN(c3ccccn3)C2)s1` (centres undefined), the cytotoxicity at 70.5 h was -5.95%. As for `O=c1ccn([C@H]2CCN(Cc3ncc[nH]3)CC[C@@H]2O)c(=O)[nH]1`, the figure is -4.85%; as for `Cc1ccc(CN2CC[C@H](O)[C@@H](n3ccc(=O)[nH]c3=O)CC2)cc1`, -2.58%; as for `Cc1noc(C)c1-c1cncc(C2CCCN2Cc2nccs2)n1` (centres undefined), -9.87%.

On to `Cc1noc(C)c1-c1cncc(C2CCCN2Cc2cn(C)cn2)n1` (centres undefined), for which the cytotoxicity at 70.5 h is -5.21%.

For the compound `Fc1ccc(CN2CCCC(c3nccnc3-n3ccnc3)C2)cc1` (centres undefined), the cytotoxicity at 70.5 h turned out to be 3.95%. On to `NCCn1nc(C2CCN(Cc3ccccc3Cl)C2)c2nccnc21` (centres undefined), for which the cytotoxicity at 70.5 h was -4.18%. Next, `CSCC[C@H]1CN2CCC[C@H]2CN1Cc1cn(C)nc1C`: -3.69%; `CSCC[C@@H]1CN2CCC[C@H]2CN1Cc1cn(C)nc1C`: 19.2%; `Cc1nc[nH]c1CN1CCN(C2CCOCC2)CC(C(N)=O)C1` (centres undefined): -9.69%.

With `Cc1nn(C)c(C)c1-c1cnc(C2CCCN(C)C2)cn1` (centres undefined), the cytotoxicity at 70.5 h was -7.8%. Next, `CCCNC(=O)c1cncc(CC2CCCN(C)C2)c1` (centres undefined): -6.34%. Next, `CC(C)N(Cc1ccccc1)C(=O)c1cc(C2CCCN2C)ccn1` (centres undefined): -6.6%. As for `CCc1nnc(Nc2cccc(C3CCN(C(=O)CO)CC3)n2)s1`, the figure is -4.24%; as for `Cc1cccnc1C(=O)N1C[C@@H]2CC[C@H](Oc3cccc(F)c3)[C@@H]2C1`, -8.25%.

With `CCc1cc(C(F)(F)F)c2c(C3CCN(C(=O)COC)CC3)noc2n1`, the cytotoxicity at 70.5 h is -6.22%. As for `COCCC(=O)N1CCCC(c2noc3nc(C)cc(C(F)(F)F)c23)C1` (centres undefined), the figure is -5.21%; as for `COCC(=O)N1CCCC(c2noc3nc(C)cc(C(F)(F)F)c23)C1` (centres undefined), 12.8%.

For `Cc1ccc(-n2c(SCC(=O)O)nnc2-c2ccccc2)cc1`, the cytotoxicity at 70.5 h is -7.44%.

Consider `Cc1ccc(-n2c(SCC(=O)O)nnc2-c2cccc(C)c2)cc1`, for which the cytotoxicity at 70.5 h is -7.34%. Regarding `CC(=O)N1CCC(Cc2cnc(C(=O)N3CCCC3)cn2)C1` (centres undefined), the cytotoxicity at 70.5 h was -4.28%. As for `Cc1nc(C2CN(C)CCO2)cc(N2CCSCC2)n1` (centres undefined), the cytotoxicity at 70.5 h was 26.1%. As to `N#Cc1ccc(CN2CCCCC2Cn2cncn2)cc1` (centres undefined), the cytotoxicity at 70.5 h was 11.7%.

As to `Cn1ccc(C(=O)Nc2nc(-c3ccc4c(c3)CCO4)cs2)cc1=O`, the cytotoxicity at 70.5 h was -6.04%. As for `COC(=O)C(C)CN(C)S(=O)(=O)c1c(Br)cc2[nH]c(=O)oc2c1Cl` (centres undefined), the figure is -4.98%; as for `CCNC(=O)CN(CC)S(=O)(=O)c1c(Br)cc2[nH]c(=O)oc2c1Cl`, -12.3%; as for `CC(C)(C)OC(=O)N[C@H]1CCN(C(=O)c2cc(Cl)c[nH]2)C1`, -4.47%. Turning to `CCc1cnc(CN(C)C(=O)Nc2cnc3c(c2)c(C)nn3C)s1`, the cytotoxicity at 70.5 h is -2.27%. Regarding `COc1ccc(CNCc2cc(Br)c3c(c2)OCO3)cc1`, the cytotoxicity at 70.5 h was -3.3%. Next, `N#Cc1ccc(CN2CCCC(Cn3cncn3)C2)c(F)c1` (centres undefined): 8.28%; `CNC(=O)N1CCOC(C)(c2cnn(C)c2)C1` (centres undefined): -5.87%; `COc1ccccc1CC1CCCN(C(=O)c2nccnc2N)C1` (centres undefined): -6.5%. Next, `N#Cc1cc(F)ccc1CN1CCCCC1Cn1cncn1` (centres undefined): -4.9%; `CC(=O)N1CCCN(CCCSc2ccccc2Cl)CC1`: -6.8%. For `Cc1ccc(CNCc2cc(Br)c3c(c2)OCO3)cc1`, the cytotoxicity at 70.5 h was -5.25%.

For the compound `N#Cc1cccc(CN2CCCC2Cn2cncn2)c1` (centres undefined), the cytotoxicity at 70.5 h was -4.98%.

As to `CC(=O)N1CCCN(CCCSCc2ccccc2)CC1`, the cytotoxicity at 70.5 h was -6.67%.

With `COC(=O)c1cc(NCc2cscn2)ccc1C`, the cytotoxicity at 70.5 h is -4.82%. As for `CN(Cc1cc(Cl)cc2cccnc12)CC1CCN(CCO)CC1`, the figure is -2.37%. As to `CC(c1nc(-c2ccccc2)no1)N1CCc2c(ncn2C2CC2)C1` (centres undefined), the cytotoxicity at 70.5 h is -2.24%. Next, `CCNC(=O)c1ccc(NC(=O)N(C)Cc2cccn2C)c(C)c1`: 5.27%; `CCC1(CC)CC(=O)N(CC(O)c2ccc(Cl)cc2)C1=O` (centres undefined): -4.91%. Next, `COCCCNC(=O)Nc1c(C)cccc1C(C)C`: -9.85%; `COCC(C)NC(=O)c1sccc1-n1cnnn1` (centres undefined): -2.58%. Take `O=S(=O)(NCCCn1cncn1)c1ccc2c(c1)CCC2`: the cytotoxicity at 70.5 h was -5.6%. Regarding `OC(CNCCc1nnc2ccccn12)c1ccc2c(c1)OCO2` (centres undefined), the cytotoxicity at 70.5 h was -5.97%. As for `CCc1cccc(C)c1NC(=O)NCCCN(CC)S(C)(=O)=O`, the figure is -3.01%.

For the compound `CCN(CCCNC(=O)Nc1ccccc1C(C)C)S(C)(=O)=O`, the cytotoxicity at 70.5 h is -4.67%. As for `C[S+]([O-])c1cccc(NC(=O)N[C@H](CCO)c2ccccc2)c1` (some centres undefined), the figure is -2.3%. On to `Cc1nnc(CN(C)CC(=O)NC(C)(C)c2ccc(F)cc2)n1C`, for which the cytotoxicity at 70.5 h is -6.19%. Next, `Cc1ccc(S(=O)(=O)Cc2nnc(C)n2C)cc1`: -2.49%; `O=C(Nc1ccc2c(c1)C(=O)NC2=O)c1cccs1`: -4.03%. As for `CC(C)c1nnc2n1CCN(Cc1cccc3c1OCCO3)C2`, the figure is 30%. For the compound `CC1CCC(O)(CSc2nnnn2C2CC2)CC1` (centres undefined), the cytotoxicity at 70.5 h is -1.68%.

Turning to `O=S(=O)(NCCCn1cncn1)c1ccc2c(c1)CCO2`, the cytotoxicity at 70.5 h was -5.26%. As to `CC1CN(CC(=O)NCCc2ccccc2)CCN1c1nccs1` (centres undefined), the cytotoxicity at 70.5 h was -5.41%. Regarding `COc1ccccc1CNC(=O)N1CCCC(CO)C1` (centres undefined), the cytotoxicity at 70.5 h came to 11.7%. Turning to `COc1cc(NC(=O)c2cccc(N(C)C)c2)cc(OC)c1`, the cytotoxicity at 70.5 h was -7.19%. As for `CCc1noc(C(C)N2CCC(NS(=O)(=O)c3cccs3)CC2)n1` (centres undefined), the figure is -11.6%. With `CC(c1nc(C2CC2)no1)N1CCC(NS(=O)(=O)c2cccs2)CC1` (centres undefined), the cytotoxicity at 70.5 h was -13.4%. Regarding `COc1cc(C(=O)NC2COc3ccccc3C2)ccc1OCC(N)=O` (centres undefined), the cytotoxicity at 70.5 h is -9.85%.

Turning to `O=C(CN1CCc2cncnc2C1)NC1CCCCNC1=O` (centres undefined), the cytotoxicity at 70.5 h is 0.54%.

On to `CCn1ccnc1CN1CCCN(C(=O)c2cncnc2C)CC1`, for which the cytotoxicity at 70.5 h came to 0.803%.

As to `NC1(c2nc(-c3cccs3)cc(=O)[nH]2)CCCC1`, the cytotoxicity at 70.5 h came to 8.08%. Next, `Cn1nc2c(cc1=O)CN(CC(=O)NC1CCCCNC1=O)CC2` (centres undefined): 12.7%; `O=C(NCCc1nncn1C1CC1)C1SCCc2sccc21` (centres undefined): -8.14%; `COCCN(C(=O)c1ccc(OC)cc1)c1ccc(C#N)cc1`: 10.5%. Consider `COc1ccccc1CC(NC(=O)N1CCOCC1)C(C)C` (centres undefined), for which the cytotoxicity at 70.5 h came to 17.3%. In the case of `CC(=O)N1CCCN(Cc2csc(C)n2)c2ccccc21`, the cytotoxicity at 70.5 h is -2.52%. As for `CNC(=O)c1coc(-c2csc(C)n2)c1`, the figure is -6.74%; as for `COc1cccc(/C=C/CCN2CCN(S(C)(=O)=O)CC2)c1`, -3.47%; as for `COc1cc(NC(=O)N(C)CC2CC2)ncn1`, -7.89%. As for `Cc1nc(C(C)(C)NCc2ncc(C(C)C)o2)sc1C`, the figure is -5.11%; as for `CC(=O)N1CCCN(Cc2ccon2)c2ccccc21`, 18.6%; as for `COCCN(CCOC)C(=O)c1ccoc1C`, -6.19%.

`CCOCCN1CCN(CC(=O)NC2(C#N)CCCC2)CC1CC` (centres undefined): the cytotoxicity at 70.5 h worked out at 0.4%. In the case of `Cc1ccsc1CN1CCc2nc3ccsc3c(=O)n2CC1`, the cytotoxicity at 70.5 h is -4.51%. Next, `O=c1c2sccc2nc2n1CCN(Cc1ccccc1C(F)(F)F)CC2`: -10.4%; `O=c1c2sccc2nc2n1CCN(Cc1cc(F)ccc1F)CC2`: -7.47%.

For `O=C(CCC1CCCC1)N1CCCC(c2ncc3c(n2)CCNC3)C1` (centres undefined), the cytotoxicity at 70.5 h was -1.37%.

As to `CC(c1ccc(F)cc1F)N1CCN(CCC(=O)O)CC1` (centres undefined), the cytotoxicity at 70.5 h is -6.34%. Next, `CC(C)c1ncc(CN2CCC(CO)C2)cn1` (centres undefined): -4.22%; `Cc1cc(C[C@@H]2COC[C@H]2NCc2ccc(Cl)c(Cl)c2)on1`: 19.8%; `CC1CCCN(Cc2ccnc(-c3cccnc3)n2)C1` (centres undefined): -13%.

For the origin of these results see ChEMBL document CHEMBL3507680, “University of Dundee, Gates Library screen for HepG2 cell viability”.
